According to ChEMBL document CHEMBL3352151, “In vitro and in vivo antibacterial evaluation and mechanistic study of ornithine based small cationic lipopeptides against antibiotic resistant clinical isolates” (Eur J Med Chem, 2014):
In brackets after ≈: the same amount, converted by molar mass. Activity calls are given as the source filed them. No cut-off for these calls is given here.

Columns and labels:
Staphylococcus aureus [1] = assay: Antibacterial activity against clinical isolates of Staphylococcus aureus PGI/DML03054 after overnight incubation by microdilution broth assay; format: functional
Staphylococcus aureus [2] = assay: Antibacterial activity against clinical isolates of methicillin-resistant Staphylococcus aureus PGI/DML03149 after overnight incubation by microdilution broth assay; format: functional
[3] = test system: Staphylococcus epidermidis; assay: Antibacterial activity against clinical isolates of Staphylococcus epidermidis GMCH/B0057 after overnight incubation by microdilution broth assay; format: functional
[4] = test system: Staphylococcus epidermidis; assay: Antibacterial activity against clinical isolates of ampicillin-resistant Staphylococcus epidermidis GMCH/R-Amp008 after overnight incubation by microdilution broth assay; format: functional
Streptococcus pneumoniae = assay: Antibacterial activity against clinical isolates of erythromycin-resistant Streptococcus pneumoniae PGI/DML02213 after overnight incubation by microdilution broth assay; format: functional
Enterococcus faecium [5] = assay: Antibacterial activity against clinical isolates of Enterococcus faecium GMCH/B0102 after overnight incubation by microdilution broth assay; format: functional
Enterococcus faecium [6] = assay: Antibacterial activity against clinical isolates of penicillin-resistant Enterococcus faecium GMCH/R-Pen003 after overnight incubation by microdilution broth assay; format: functional
[7] = Toxicity in albino mouse assessed as mortality at 5 mg/kg, iv; format: organism-based; design: dose 5 mg/kg, route intravenous; conditions: in vivo
[8] = Toxicity in albino mouse assessed as mortality at 15 mg/kg, iv; format: organism-based; design: dose 15 mg/kg, route intravenous; conditions: in vivo
[9] = Toxicity in albino mouse assessed as mortality at 30 mg/kg, iv; format: organism-based; design: dose 30 mg/kg, route intravenous; conditions: in vivo
[10] = Toxicity in albino mouse assessed as mortality at 45 mg/kg, iv; format: organism-based; design: dose 45 mg/kg, route intravenous; conditions: in vivo
[11] = Toxicity in albino mouse assessed as mortality at 75 mg/kg, iv; format: organism-based; design: dose 75 mg/kg, route intravenous; conditions: in vivo
[12] = Toxicity in albino mouse assessed as mortality at 120 mg/kg, iv; format: organism-based; design: dose 120 mg/kg, route intravenous; conditions: in vivo
Enterococcus faecalis [13] = assay: Antibacterial activity against clinical isolates of Enterococcus faecalis GMCH/B0091 after overnight incubation by microdilution broth assay; format: functional
Enterococcus faecalis [14] = assay: Antibacterial activity against clinical isolates of gentamicin-resistant Enterococcus faecalis GMCH/R-Gen011 after overnight incubation by microdilution broth assay; format: functional
Escherichia coli [15] = assay: Antibacterial activity against clinical isolates of imipenem-resistant Escherichia coli PGI/DML02292 after overnight incubation by microdilution broth assay; format: functional
Klebsiella pneumoniae [16] = assay: Antibacterial activity against clinical isolates of Klebsiella pneumoniae GMCH/B0127 after overnight incubation by microdilution broth assay; format: functional
Klebsiella pneumoniae [17] = assay: Antibacterial activity against clinical isolates of kanamycin-resistant Klebsiella pneumoniae GMCH/R-Kan006 after overnight incubation by microdilution broth assay; format: functional
Acinetobacter baumannii = assay: Antibacterial activity against clinical isolates of Acinetobacter baumannii GMCH/B0083 after overnight incubation by microdilution broth assay; format: functional
Haemophilus influenzae = assay: Antibacterial activity against clinical isolates of ciprofloxacin-resistant Haemophilus influenzae PGI/DML01744 after overnight incubation by microdilution broth assay; format: functional
Escherichia coli [18] = assay: Antibacterial activity against Escherichia coli PGI/DML02292 infected in Swiss albino mouse assessed as log reduction at 1 mg/kg administered twice at 1 hr and 5 hrs post infection relative to control; format: functional
Escherichia coli [19] = assay: Antibacterial activity against Escherichia coli PGI/DML02292 infected in Swiss albino mouse assessed as log reduction at 3 mg/kg administered twice at 1 hr and 5 hrs post infection relative to control; format: functional
Staphylococcus aureus [20] = assay: Antibacterial activity against Staphylococcus aureus PGI/DML03149 infected in Swiss albino mouse assessed as log reduction at 3 mg/kg administered twice at 1 hr and 5 hrs post infection relative to control; format: functional
Escherichia coli [21] = assay: Antibacterial activity against Escherichia coli PGI/DML02292 infected in Swiss albino mouse assessed as log reduction at 5 mg/kg administered at 1 hr post infection relative to control; format: functional
Staphylococcus aureus [22] = assay: Antibacterial activity against Staphylococcus aureus PGI/DML03149 infected in Swiss albino mouse assessed as log reduction at 5 mg/kg administered twice at 1 hr and 5 hrs post infection relative to control; format: functional
Escherichia coli [23] = assay: Antibacterial activity against Escherichia coli PGI/DML02292 infected in Swiss albino mouse assessed as log reduction at 10 mg/kg administered at 1 hr post infection relative to control; format: functional
Staphylococcus aureus [24] = assay: Antibacterial activity against Staphylococcus aureus PGI/DML03149 infected in Swiss albino mouse assessed as log reduction at 10 mg/kg administered […] at 1 hr post infection relative to control; format: functional
[25] = Cytotoxicity against human HaCaT cells assessed as cell viability at 100 ug/ml after 18 hrs by MTT assay; format: cell-based; conditions: read-out: Activity
[26] = Cytotoxicity against human HaCaT cells assessed as cell viability at 500 ug/ml after 18 hrs by MTT assay; format: cell-based; conditions: read-out: Activity
[27] = Membrane permeabilization activity assessed as release of calcein from liposomes at 1:50 lipopeptide:lipid molar ratio after 5 mins by fluorescence assay
[28] = Membrane permeabilization activity assessed as release of calcein from liposomes at 1:10 lipopeptide:lipid molar ratio after 5 mins by fluorescence assay
[29] = Membrane permeabilization activity assessed as release of calcein from liposomes after 5 mins by fluorescence assay
Escherichia coli [30] = assay: Bactericidal activity against clinical isolates of Escherichia coli PGI/DML02292 assessed as surface blebs at 4 times MIC after 30 mins by […] microscopy relative to control; format: functional, organism-based
Escherichia coli [31] = assay: Bactericidal activity against clinical isolates of Escherichia coli PGI/DML02292 assessed as disruption of cell structure at 4 times MIC after 30 mins by transmission electron microscopy relative to control; format: functional, organism-based
Escherichia coli [32] = assay: Binding affinity to Escherichia coli PGI/DML02292 DNA at 12 ug/ml after 1 hr by agarose gel electrophoresis
Plasma = assay: Drug degradation in human plasma at 1 ug/ml after 24 hrs by RP-HPLC analysis; format: ADME, cell-free
[33] = (§1) Toxicity in iv dosed albino mouse; format: organism-based; conditions: in vivo
Mus musculus [34] = assay: as §1; format: organism-based; conditions: in vivo
Mus musculus [35] = assay: Toxicity in albino mouse assessed as death at 1 to 30 mg/kg, iv measured for 14 days; format: organism-based; design: dose 1-30 mg/kg, route intravenous; conditions: in vivo, 336 h
Mus musculus [36] = assay: Toxicity in albino mouse assessed as mortality latency at 45 mg/kg, iv; format: organism-based; design: dose 45 mg/kg, route intravenous; conditions: in vivo
Mus musculus [37] = assay: Toxicity in albino mouse assessed as mortality latency at 60 mg/kg, iv; format: organism-based; design: dose 60 mg/kg, route intravenous; conditions: in vivo
Mus musculus [38] = assay: Toxicity in albino mouse assessed as mortality latency at 75 mg/kg, iv; format: organism-based; design: dose 75 mg/kg, route intravenous; conditions: in vivo
Mus musculus [39] = assay: Toxicity in albino mouse assessed as mortality latency at 120 mg/kg, iv; format: organism-based; design: dose 120 mg/kg, route intravenous; conditions: in vivo
Mus musculus [40] = assay: Toxicity in albino mouse assessed as mortality latency at 150 mg/kg, iv; format: organism-based; design: dose 150 mg/kg, route intravenous; conditions: in vivo
Mus musculus [41] = assay: Toxicity in albino mouse assessed as hypoactivity at 45 to 75 mg/kg, iv measured for 14 days; format: organism-based; design: dose 45-75 mg/kg, route intravenous; conditions: in vivo, 336 h
Mus musculus [42] = assay: Toxicity in albino mouse assessed as anorexia at 45 to 150 mg/kg, iv measured for 14 days; format: organism-based; design: dose 45-150 mg/kg, route intravenous; conditions: in vivo, 336 h
Mus musculus [43] = assay: Toxicity in albino mouse assessed as piloerection at 75 mg/kg, iv measured for 14 days; format: organism-based; design: dose 75 mg/kg, route intravenous; conditions: in vivo, 336 h
[44] = Toxicity in albino mouse assessed as mortality at 1 mg/kg, iv; format: organism-based; design: dose 1 mg/kg, route intravenous; conditions: in vivo

Work on `CCCCCCCCCCCCCC(=O)NC(CCCN)C(=O)NC(CCCN)C(=O)NC(CCCN)C(N)=O` (stereo unspecified) yielded an MIC (Staphylococcus aureus [1]) of 2.5 µg/mL (≈ 4.39 µM), an MIC (Staphylococcus aureus [2]) of 3.1 µg/mL (≈ 5.44 µM) and an MIC [3] of 3.5 µg/mL (≈ 6.14 µM). For the same molecule, the MIC [4] was 3.1 µg/mL (≈ 5.44 µM), the MIC (Streptococcus pneumoniae) was 4.2 µg/mL (≈ 7.37 µM) and the MIC (Enterococcus faecium [5]) was 3.5 µg/mL (≈ 6.14 µM). The MIC (Enterococcus faecium [6]) was 3.1 µg/mL (≈ 5.44 µM), the mortality [7] was 0% and the mortality [8] was 0%. The mortality [9] was 0%, the mortality [10] was 15% and the mortality [11] was 40%. It also gave a mortality [12] of 75%, an MIC (Enterococcus faecalis [13]) of 1.5 µg/mL (≈ 2.63 µM) and an MIC (Enterococcus faecalis [14]) of 4.5 µg/mL (≈ 7.9 µM). The MIC (Escherichia coli [15]) was 5.5 µg/mL (≈ 9.65 µM), the MIC (Klebsiella pneumoniae [16]) was 4 µg/mL (≈ 7.02 µM) and the MIC (Klebsiella pneumoniae [17]) was 5.5 µg/mL (≈ 9.65 µM). For the same molecule, the MIC (Acinetobacter baumannii) was 2.5 µg/mL (≈ 4.39 µM), the MIC (Haemophilus influenzae) was 3.1 µg/mL (≈ 5.44 µM) and the FC (Escherichia coli [18]) was 1.08. It also gave an FC (Escherichia coli [19]) of 3.83, an FC (Staphylococcus aureus [20]) of 2.8 and an FC (Escherichia coli [21]) of 3.68. For the same molecule, the FC (Staphylococcus aureus [22]) was 4.15, the FC (Escherichia coli [23]) was 5.41 and the FC (Staphylococcus aureus [24]) was 4.59. The viability at 18 h, 100 ug/ml [25] was 92%, the viability at 18 h, 500 ug/ml [26] was 25% and the Activity [27] was 51%. For the same molecule, the Activity [28] was 91%, the Activity [29] was “Dose-dependent effect” and the Activity (Escherichia coli [30]) was “Active”. The Activity (Escherichia coli [31]) was “Active”, the Activity (Escherichia coli [32]) was “inactive” and the Stability (Plasma) was “Stable”. The LD50 [33] was 81.3 mg/kg, the MTD [33] was 30 mg/kg and the NOAEL [33] was 30 mg/kg. The LOAEL (Mus musculus [34]) was 45 mg/kg, the MLD (Mus musculus [34]) was 45 mg/kg and the Activity (Mus musculus [35]) was “Non-toxic”. The Time (Mus musculus [36]) was over 168 h, the Time (Mus musculus [37]) was over 120 h and the Time (Mus musculus [38]) was over 120 h. For the same molecule, the Time (Mus musculus [39]) was over 48 h, the Time (Mus musculus [40]) was over 48 h and the Activity (Mus musculus [41]) was “Toxic”. For the same molecule, the Activity (Mus musculus [42]) was “Toxic”, the Activity (Mus musculus [43]) was “Toxic” and the mortality [44] was 0%.
